Assay results from patent publication US9353415B2, “Methods for functional analysis of high-throughput experimental data and gene groups identified therefrom” (Thomson Reuters (Scientific) LLC, priority 2006, dated 2016).

Test system: CREB pathway
Assay: microarray gene expression from the livers of rats exposed to drugs, mapped on pathway maps (signature networks method)
Assay type: in vivo
Details: rat liver, treated vs untreated, custom cDNA two-channel arrays, five repeats; no threshold for fold change and P-values; FIG. 16C
Protocol: This dataset contains microarray gene expression from the livers of rats exposed to three drugs: phenobarbital, mestranol, and tamoxifen. The data were produced by custom cDNA two-channel arrays. Five biological repeats were performed for each treatment and a set of five samples from the untreated animals were analyzed.
A pre-computed comprehensive set of overlapping canonical pathways derived from 450 signaling and metabolic pathway maps manually created using a general database, MetaCore™ was obtained. These pathways then were used as a framework for mapping experimental datasets as well as to calculate the network modules most relevant to specific pathways (FIG. 15). The maps feature approximately 3,000 proteins and over 2,000 overlapping human pathways. On these maps, typical signaling inputs (indicated by block arrows) are identified. The network modules were then generated as chains of interactions/reactions initiated at one of the signaling inputs and followed down to the last protein identified in the canonical pathway; such termini often are transcription factors and their targets. These pathways represent linear modules of cell signaling, usually parts of signaling cascades between secondary messengers and transcription factors. […]
FIG. 16C is the top scored CREB pathway map for the genes content of the network A. Gene expression was mapped without thresholds. […]

Compound: CC/C(=C(\c1ccccc1)c1ccc(OCCN(C)C)cc1)c1ccccc1 [tamoxifen]
- direction of expression (fold change) of genes on the highest scored pathway map, CREB pathway: down-regulated
